Source: patent US20240189307A1, “METHODS OF STABILIZING THE NEURONAL PROTEOME AGAINST COLLAPSE AND PROTECTING VASCULAR CELLS” (ALBERT EINSTEIN COLLEGE OF MEDICINE, priority 2021, published 2024)

What was measured:
KFERQ-Dendra mice = assay: CMA activation in brain of KFERQ-Dendra mice; details: administered in vivo
Source text: To test this possibility, we measured CMA in a mouse model of tau-mediated proteotoxicity expressing mutant human tau (hTau^P301L) under the Thy 1.2 promotor (line pR5). We crossed hTau^P301L mice with a transgenic mouse model that expresses systemically a KFERQ-tagged fluorescent protein Dendra2 (KFERQ-Dendra), recently developed by our group. This reporter protein, when targeted for degradation via CMA, highlights lysosomes as fluorescent puncta, that can be counted as read out of CMA activity.

[1] = test system: Tg mice (APPSwe; PS2N141I; TauP301L); assay: Triple transgenic (Tg, TauPS2APP) mouse model of Alzheimer's disease-related proteotoxicity, oral daily CA; assay type: in vivo
Source text: FIG. 12. Chemical activation of CMA improves behavior and neuropathology in a mouse model of Alzheimer's disease-related proteotoxicity. (A) Schematic of regimen of CMA activator (CA) administration to TauPS2APP (Tg) mice. (B-D) Performance of Tg mice administered vehicle (Veh) or CMA activator (CA) in the novel object recognition test (B, left plot: % of time dedicated to the novel object; right plot: discrimination index), the elevated plus maze (C) and the forced swim test (D). (E) Clasping score in Tg mice +/− CA: time course of clasping score increase (left) and mean linear regression coefficient (right). (F) Performance of Tg mice +/− CA in horizontal grid test. (G-O) Immunostaining of immature amyloid plaques (MOAB2), mature amyloid depositions (6E10), β-sheet marker (Thioflavin S) and Threonine231-phosphorylated tau (pThr231 tau) in the dorsal hippocampus of Tg mice +/− CA. Montages of individual images from the scanning of whole brain slices are shown. Inset: Higher magnification of pThr231 tau staining. Scale bar: 200 μm. Quantification of images of montages of individual images from the scanning of whole brain slices of percentage of area positive and plaque size for MOAB2 (G, J), 6E10 (H, K) or Thioflavin S (I, L). Relationship between number of plaques and average plaque size for different markers of plaque maturity (ThS>6E10>MOAB2) […]. Quantification of percentage of area positive for pThr231 tau (N) and of the overlap between pThr231 tau staining and 6E10 staining (O). All quantifications (except clasping—E) were done at 12 months, in 4-6 mice per group. Data are mean±s.e.m. Comparisons were made using unpaired t-test (B-D, F, G-O), Two-way ANOVA test followed by Sidak's post-hoc analysis (E). *p<0.05, **p<0.005, ***p<0.0005.
FIG. 13. Effect of chemical activation of CMA in a mouse model of Alzheimer's disease-related proteotoxicity. (A-D) Quantification of size of plaques positive for MOAB2 (t7=3.181, p=0.0155) (A), 6E10 (B) or Thioflavin S (ThS) (C) and of T231-phosphorylated tau pathology (t8=2.382, p=0.0444) (D) in brain cortex from Tg mice administered Veh or CA for 4 months. (E) Summary heatmap highlighting the extent of pathology reduction upon CMA activation in cortex and dorsal hippocampus. * highlights significant difference between Veh and CA administered Tg mice. (F) Immunoblot for S202/T205-phosphorylated (AT8) tau in the brain of Tg mice treated with Veh or CA. Representative immunoblot (left) and densitometric quantification (t8=2.425, p=0.0415) (right). Values were normalized to ponceau and are expressed as folds of Veh treated mice. (G) Number of GFAP-positive astrocytes per area unit (t8=4.058, p=0.0036). (H-I) Representative images of immunostaining of inflammation (microglial marker: Iba1—Green), amyloid pathology (MOAB2—Magenta) and nuclear staining with DAPI (blue) in the dorsal hippocampus of Tg mice administered Veh or CA. Montages of individual images of the dorsal hippocampus from the scanning of whole brain slices are shown. Quantification of number of Iba1-positive microglial cells per area unit (t8=2.041, p=0.0755) (left) and mean cell size (t8=2.079, p=0.0713) (right) (H) and colocalization coefficient between microglia (Iba1) and amyloid plaques (MOAB2) (I) (Mann Whitney U=6, p=0.2571). Mean±s.e.m. and individual values are shown. Comparisons were made using unpaired t-test analysis. *: p<0.05, **: p<0.005.
Male wild-type mice (C57BL/6J) or transgenic for CaMKIIα-Cre (B6.Cg-Tg(Camk2α-cre)T29-1Stl/J, Jackson Laboratory), LAMP-2A^flox/flox (Schneider et al., 2014), Tau^P301L (line pR5), Tg (APP^Swe; PS2^N141I; Tau^P301L), PS19 (Tau^P301S) (Yoshiyama et al., 2007) and Atg7^f/f were used in the study. Conditional LAMP-2A deletion was generated by breeding LAMP-2A^flox/flox with the transgenic Cre mice of interest. […]

[2] = dorsal hippocampus, 30 mg/kg oral daily, 4 months
[3] = hippocampus and cortex, 30 mg/kg oral daily, 4 months

CC(=O)Nc1ccc(-c2cnc3cc(Cl)ccc3n2)cc1 [CA77.1]
activation of CMA in brain in vivo (KFERQ-Dendra mice): activation of CMA in brain of KFERQ-Dendra mice | visual memory (novel object recognition test) ([1]; 30 mg/kg oral daily for 4 months from 8 months of age): better visual memory | anxiety- and depression-like behaviors (elevated plus maze, forced swim test) ([1]; 30 mg/kg oral daily, 4 months): decreased anxiety- and depression-like behaviors | clasping progression ([1]; 30 mg/kg oral daily, 4 months): slower clasping progression | number of amyloid deposits ([1]; 30 mg/kg oral daily, 4 months): lower number of deposits depending on the deposit maturity | performance in horizontal grid test ([1]; 30 mg/kg oral daily, 4 months): increased performance in horizontal grid test | S202/T205-phosphorylated (AT8) tau by immunoblot ([1]; brain, 30 mg/kg oral daily, 4 months): significant reduction of the mature phosphosite AT8 | association of glial cells with amyloid plaque-like deposit [1, 2]: less association of glial cells with amyloid plaque-like deposit | number of microglia and astrocytes [1, 2]: lower number of microglia and astrocytes in the dorsal hippocampus | T231 phosphorylated Tau levels [1, 3]: reduced levels of the early T231 phosphorylated Tau | area and size of amyloid plaques (MOAB2, 6E10, thioflavin S) [1, 3]: reduced area and size of immature (MOAB2-positive) and mature (6E10 and thioflavin S-positive) amyloid plaques
